Laboratory results taken from PubChem BioAssay AID2060904 (Molecular Pharmacology Branch, DTP, NCI, 2025).
Several values for one entry are separate records, joined by “and”; a condition that tells them apart may be missing. Identical values can stand only once.

Test system: 349418-098-R-PDC complex spheroid viability
Assay: Anticancer human tumor 349418-098-R-PDC patient-derived lung adenocarcinoma cell line growth inhibition [RAS]
Details: for viability, T/C: stronger effect = lower value
Text: RAS pathway inhibitors in Combinations in Complex Spheroids
A high-throughput screen of multi-cell type tumor spheroids was designed to identify active combinations of RAS pathway inhibitors and targeted small molecules. Complex spheroids include a stromal component modeled by human endothelial cells (HUVEC) and fibroblasts modeled by human mesenchymal stem cells (MSCs). The concentration ranges selected for each drug and investigational agent were based upon clinically achievable concentrations if the clinical Cmax of the agent was known.
Compounds. The drugs and investigational agents: abemaciclib (NSC768073), cobimetinib (NSC768068), divarasib (GDC6063, NSC841802), docetaxel (NSC628503), GDC-1971 (RLY-1971, NSC841576), gemcitabine (NSC613327), inavolisib (NSC800729), ipatasertib (NSC767898), KB-0742 (NSC834161), MRTX-1133 (NSC836407), osimertinib (NSC779217), RMC-4630 (NSC839698), RMC-6236 (NSC851965), RMC-6291 (NSC852671), Ro-3306 (NSC812927), sapanisertib (NSC764658), SN-38 (NSC673596), staurosporine (NSC755774), SY5609 (NSC837396), and tovorafenib (DAY101, NSC766906), were obtained from the National Cancer Institute (NCI) Developmental Therapeutics Program Chemical Repository. The FDA-approved anticancer drug set is available from the NCI Developmental Therapeutics Program. […] The stock solutions were prepared in dimethyl sulfoxide (DMSO, Sigma-Aldrich, St. Louis, MO, cat. D2650) at 800-fold the tested concentration and stored at -70 degrees C prior to their use. All drugs and investigational agents were tested over a range starting from a high concentration at or near the clinical Cmax and decreasing in half-log increments. If the clinical Cmax for an agent had not been determined, the highest concentration tested was 10 microM.
Cell Culture. All cells were maintained in an incubator at 37 degrees C and 5% CO2 with 95% humidity. The PDC lines were cultured according to standard operating procedures established by the NCI PDMR. All PDCs were thawed and cultured in Matrigel-coated flasks prepared with a working solution of 1X Ham's F-12 nutrient mix, without supplementation (Invitrogen, Waltham, MA, cat. 11765054), 100 U/mL penicillin-streptomycin (Invitrogen, cat. 15140122), and 2.5% Matrigel (Corning Inc., Corning, NY, cat. 354248) for the first three passages. The 362531-283-R-J2-PDC and 782815-120-R-J1-PDC lines were cultured in 6C/Colon 1B media, which includes advanced DMEM/F-12 (Thermo Fisher Scientific, cat. 12634028), 10 mM HEPES (Thermo Fisher Scientific, cat. 15630080), 1X GlutaMAX supplement (Thermo Fisher Scientific, cat. 35050061), 0.1 mg/mL primocin (InvivoGen, San Diego, CA, cat. ant-pm-2), 10% defined fetal bovine serum, heat inactivated (HyClone Laboratories Inc., Logan, UT, cat. SH30070.03HI), 50% L-WRN conditioned media (ATCC, cat. CRL-3276), 1.25 mM N-Acetyl-L-cysteine (Sigma-Aldrich, cat. A9165), 10 mM nicotinamide (Sigma-Aldrich, cat. N0636), 1X B-27 supplement (Thermo Fisher Scientific, cat. 17504044), 1X N-2 supplement (Thermo Fisher Scientific, cat. 17502048), 50 ng/mL human EGF (Thermo Fisher Scientific, cat. PHG0311), and 10 microM Y-27632 dihydrochloride (Tocris Bioscience, cat. 1254). The K12877-001-R-J1-PDC line was cultured in 6I media, which includes all 6C/Colon 1B media plus 10 ng/mL human FGF-10 (PeproTech, cat. 100-26), 1 ng/mL human FGF-2 (PeproTech, cat. 100-18B), 1 µM prostaglandin E2 (Tocris Bioscience, cat. 2296), […] hydrocortisone (Sigma-Aldrich, cat. H4001), and […] bovine insulin (Sigma-Aldrich, cat. I6634). The K86415-001-R-J1-PDC line was cultured in 6D media, which includes all 6C/Colon 1B media components minus the L-WRN conditioned media. The 485176-168-R4-J1-PDC was cultured in PANC media, which includes all 6C/Colon 1B media plus 100 ng/mL human FGF-10 (PeproTech, cat. 100-26), 500 nM SB-431542 (Selleckchem, cat. S1067), and 10 nM gastrin (Tocris Bioscience, cat. 3006). […]

[1] = compound alone, run of 06/10/2024
[2] = compound alone, run of 05/20/2024
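Further: spheroids exposed to compound for seven days before viability readout.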

Compound | IC50 (curve of compound) | viability, T/C (compound 0.0316 µM) | viability, T/C (compound 10 µM) | viability, T/C (compound 0.1 µM) | viability, T/C (compound 0.316 µM) | viability, T/C (compound 1 µM) | viability, T/C (compound 3.16 µM) | further results
C#Cc1c(F)ccc2cc(O)cc(-c3ncc4c(N5CC6CCC(C5)N6)nc(OCC56CCCN5CC(F)C6)nc4c3F)c12 (stereo unspecified) |  | 87.2% [middle of 8 runs] | 71.8% [middle of 8 runs] |  |  |  |  | IC50 [1]: > 10000 nM
CC(=O)OC12COC1CC(O)C1(C)C(=O)C(O)C3=C(C)C(OC(=O)C(O)C(NC(=O)OC(C)(C)C)c4ccccc4)CC(O)(C(OC(=O)c4ccccc4)C21)C3(C)C (stereo unspecified) | < 31.6 nM | 14.5% [middle of 4 runs] | 25.8% [middle of 4 runs] | 14.6% [middle of 4 runs] | 17.6% [middle of 4 runs] | 15.2% [middle of 4 runs] | 24.6% [middle of 4 runs] | 
CC(C)NCC(C(=O)N1CCN(c2ncnc3c2C(C)CC3O)CC1)c1ccc(Cl)cc1 (stereo unspecified) | 476 nM [middle of 4 runs] |  | 12.6% [middle of 4 runs] | 81.7% [middle of 4 runs] | 62.2% [middle of 4 runs] | 37.9% [middle of 4 runs] | 18% [middle of 4 runs] | 
CC(Nc1ccc2c(c1)OCCn1cc(N3C(=O)OCC3C(F)F)nc1-2)C(N)=O (stereo unspecified) |  | 75.9% [middle of 4 runs] | 14.1% [middle of 4 runs] | 49.6% [middle of 4 runs] | 32% [middle of 4 runs] | 21.9% [middle of 4 runs] |  | 
CCN1CCN(Cc2ccc(Nc3ncc(F)c(-c4cc(F)c5nc(C)n(C(C)C)c5c4)n3)nc2)CC1 |  |  |  | 28.7% [middle of 4 runs] | 23.5% [middle of 4 runs] | 17.6% [middle of 4 runs] |  | viability, T/C (compound 0.01 µM): 59.8% [middle of 4 runs]
CCn1c(-c2cc(N3CCN(C)CC3)cnc2C(C)OC)c2c3cc(ccc31)-c1csc(n1)CC(NC(=O)C1CC1C)C(=O)N1CCCC(N1)C(=O)OCC(C)(C)C2 (stereo unspecified) |  |  |  |  |  |  |  | viability, T/C (compound 0.000949 µM): 108% [middle of 8 runs]; viability, T/C (compound 0.003 µM): 103% [middle of 8 runs]; viability, T/C (compound 0.03 µM): 105% [middle of 8 runs]; viability, T/C (compound 0.0949 µM): 111% [middle of 8 runs]; IC50 [2]: > 300 nM
CCn1c(-c2cccnc2C(C)OC)c2c3cc(ccc31)N1CCOC(CC(NC(=O)C(C(C)C)N(C)C(=O)C3(F)CCN(C(=O)C#CC(C)(C)N(C)C)CC3)C(=O)N3CCCC(N3)C(=O)OCC(C)(C)C2)C1 (stereo unspecified) |  |  |  |  |  |  |  | viability, T/C (compound 0.003 µM): 111% [middle of 8 runs]; IC50 [2]: > 300 nM
C[C@@H](NC(=O)c1ncnc(N)c1Cl)c1ncc(C(=O)Nc2cc(C(F)(F)F)c(Cl)cn2)s1 | 2.13 µM [middle of 4 runs] |  | 32% [middle of 4 runs] | 109% [middle of 4 runs] | 91.3% [middle of 4 runs] | 64.9% [middle of 4 runs] |  | 
Cc1nc(N2CCC3(CC2)COC(C)C3N)c(CO)nc1Sc1ccnc(N)c1Cl (stereo unspecified) | > 10000 nM | 91.6% [middle of 4 runs] | 95.3% [middle of 4 runs] | 102% [middle of 4 runs] | 101% [middle of 4 runs] |  | 100% [middle of 4 runs] | 
NC1c2ccccc2OC12CCN(c1cnc3c(N4CCCc5ncccc54)n[nH]c3n1)CC2 (stereo unspecified) | > 10000 nM | 102% [middle of 4 runs] | 68.6% [middle of 4 runs] |  |  |  | 98.5% [middle of 4 runs] | 

Now from value to compound, other results behind:

IC50 (curve of compound) | Compound | viability, T/C (compound 0.0316 µM) | viability, T/C (compound 10 µM) | viability, T/C (compound 0.1 µM) | viability, T/C (compound 0.316 µM) | viability, T/C (compound 1 µM) | viability, T/C (compound 3.16 µM) | further results
> 1000 nM | C=CC(=O)N1CCN(c2nc(OCC3CCCN3C)nc3c(F)c(-c4nc(N)cc(C)c4C(F)(F)F)c(Cl)cc23)C(C)C1 (stereo unspecified) |  |  | 102% [middle of 12 runs] | 95.8% [middle of 12 runs] | 85.1% [middle of 12 runs] |  | IC50 [1]: > 1000 nM
> 1000 nM | C=CC(=O)Nc1cc(Nc2nccc(-c3cn(C)c4ccccc34)n2)c(OC)cc1N(C)CCN(C)C |  |  |  | 85.7% [middle of 4 runs] | 71.4% [middle of 4 runs] |  | viability, T/C (compound 0.00316 µM): 104% [middle of 4 runs]
3.6 nM [middle of 4 runs] | CC(C)n1nc(-c2ccc3oc(N)nc3c2)c2c(N)ncnc21 | 8.74% [middle of 4 runs] |  | 7.93% [middle of 4 runs] |  |  |  | viability, T/C (compound 0.00316 µM): 44.1% (2×) and 55.6% and 55.3%; viability, T/C (compound 0.01 µM): 17% [middle of 4 runs]
1.47 nM and < 0.949 nM and 1.51 nM | CC1(C)CCC(Nc2ncc(C(F)(F)F)c(-c3c[nH]c4c(P(C)(C)=O)c(C#N)ccc34)n2)CN1 (stereo unspecified) |  |  |  |  |  |  | viability, T/C (compound 0.000949 µM): 65.3% [middle of 4 runs]; viability, T/C (compound 0.003 µM): 24.7% [middle of 4 runs]; viability, T/C (compound 0.00949 µM): 15.5% [middle of 4 runs]; viability, T/C (compound 0.03 µM): 9.86% [middle of 4 runs]; viability, T/C (compound 0.0949 µM): 8.72% [middle of 4 runs]; viability, T/C (compound 0.3 µM): 8.1% [middle of 4 runs]
87.8 nM [middle of 4 runs] | CC1(O)CCCC1n1c(=O)c(C(F)F)cc2cnc(NC3CCN(S(C)(=O)=O)CC3)nc21 (stereo unspecified) | 79.5% [middle of 4 runs] | 2.67% [middle of 4 runs] | 43% [middle of 4 runs] | 26.1% [middle of 4 runs] | 22.1% [middle of 4 runs] | 19.5% [middle of 4 runs] | 
778 nM [middle of 4 runs] | CCC(CC)c1cc(NC2CCC(N)C2)n2nccc2n1 (stereo unspecified) | 101% [middle of 4 runs] | 2.61% [middle of 4 runs] |  |  | 41.9% [middle of 4 runs] | 2.95% [middle of 4 runs] | 
2.32 nM [middle of 4 runs] | CCc1c2c(nc3ccc(O)cc13)-c1cc3c(c(=O)n1C2)COC(=O)[C@]3(O)CC |  |  |  |  |  |  | viability, T/C (compound 0.000949 µM): 82% [middle of 4 runs]; viability, T/C (compound 0.003 µM): 39.4% [middle of 4 runs]; viability, T/C (compound 0.00949 µM): 17.2% [middle of 4 runs]; viability, T/C (compound 0.03 µM): 6.46% [middle of 4 runs]; viability, T/C (compound 0.0949 µM): 3.27% [middle of 4 runs]; viability, T/C (compound 0.3 µM): 2.43% [middle of 4 runs]
< 3.16 nM | Nc1ccn(C2OC(CO)C(O)C2(F)F)c(=O)n1 (stereo unspecified) | 5.62% [middle of 4 runs] |  | 5.46% [middle of 4 runs] | 5.2% [middle of 4 runs] | 5.11% [middle of 4 runs] |  | viability, T/C (compound 0.00316 µM): 25.7% [middle of 4 runs]; viability, T/C (compound 0.01 µM): 6.96% [middle of 4 runs]
< 3.16 nM | O=C(c1ccc(F)c(F)c1Nc1ccc(I)cc1F)N1CC(O)([C@@H]2CCCCN2)C1 | 33% [middle of 4 runs] |  | 12.2% [middle of 4 runs] | 7.62% [middle of 4 runs] | 6.03% [middle of 4 runs] |  | viability, T/C (compound 0.00316 µM): 35.9% [middle of 4 runs]; viability, T/C (compound 0.01 µM): 35.3% [middle of 4 runs]
